Tests used:
PAK6 = target: T1, PAK6 (Homo sapiens, UniProt Q9NQU5); experiment: Kinobeads competition binding: PAK6; conditions: target PAK6
T1 construct: a mixture of lysates from five cancer cell lines; endogenous in cells

CSNK1D = target: T2, CSNK1D (Homo sapiens, UniProt P48730); experiment: Kinobeads competition binding: CSNK1D; conditions: target CSNK1D
T2 construct: endogenous in cells

CAMKK2 = target: T3, CAMKK2 (Homo sapiens, UniProt Q96RR4); experiment: Kinobeads competition binding: CAMKK2; conditions: target CAMKK2
T3 construct: endogenous in cells
T3 sequence (Q96RR4 whole entry): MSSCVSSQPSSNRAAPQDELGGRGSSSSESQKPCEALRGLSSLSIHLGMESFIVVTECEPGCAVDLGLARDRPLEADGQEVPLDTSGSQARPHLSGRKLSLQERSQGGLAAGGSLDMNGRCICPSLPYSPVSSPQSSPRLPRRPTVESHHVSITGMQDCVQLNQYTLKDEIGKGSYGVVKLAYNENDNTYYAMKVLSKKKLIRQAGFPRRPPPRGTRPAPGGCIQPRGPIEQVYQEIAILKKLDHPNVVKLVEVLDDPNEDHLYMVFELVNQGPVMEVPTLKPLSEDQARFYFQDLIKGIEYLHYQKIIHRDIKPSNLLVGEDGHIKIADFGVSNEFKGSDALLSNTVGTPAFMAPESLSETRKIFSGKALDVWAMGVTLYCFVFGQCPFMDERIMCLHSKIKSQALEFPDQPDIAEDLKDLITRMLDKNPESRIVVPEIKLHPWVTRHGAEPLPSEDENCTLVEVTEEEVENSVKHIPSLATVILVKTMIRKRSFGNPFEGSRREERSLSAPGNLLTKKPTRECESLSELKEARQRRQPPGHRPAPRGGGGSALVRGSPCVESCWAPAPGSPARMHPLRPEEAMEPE
Source text: Supplement 41589_2023_1459_MOESM4_ESM.xlsx, sheet "CATDS matrix" | column: CAMKK2

FES = target: T4, FES (Homo sapiens, UniProt P07332); experiment: Kinobeads competition binding: FES; conditions: target FES;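 further: selectivity score: engagement of this protein divided by summed engagement of all targets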
T4 construct: endogenous in cells
T4 sequence (P07332 whole entry): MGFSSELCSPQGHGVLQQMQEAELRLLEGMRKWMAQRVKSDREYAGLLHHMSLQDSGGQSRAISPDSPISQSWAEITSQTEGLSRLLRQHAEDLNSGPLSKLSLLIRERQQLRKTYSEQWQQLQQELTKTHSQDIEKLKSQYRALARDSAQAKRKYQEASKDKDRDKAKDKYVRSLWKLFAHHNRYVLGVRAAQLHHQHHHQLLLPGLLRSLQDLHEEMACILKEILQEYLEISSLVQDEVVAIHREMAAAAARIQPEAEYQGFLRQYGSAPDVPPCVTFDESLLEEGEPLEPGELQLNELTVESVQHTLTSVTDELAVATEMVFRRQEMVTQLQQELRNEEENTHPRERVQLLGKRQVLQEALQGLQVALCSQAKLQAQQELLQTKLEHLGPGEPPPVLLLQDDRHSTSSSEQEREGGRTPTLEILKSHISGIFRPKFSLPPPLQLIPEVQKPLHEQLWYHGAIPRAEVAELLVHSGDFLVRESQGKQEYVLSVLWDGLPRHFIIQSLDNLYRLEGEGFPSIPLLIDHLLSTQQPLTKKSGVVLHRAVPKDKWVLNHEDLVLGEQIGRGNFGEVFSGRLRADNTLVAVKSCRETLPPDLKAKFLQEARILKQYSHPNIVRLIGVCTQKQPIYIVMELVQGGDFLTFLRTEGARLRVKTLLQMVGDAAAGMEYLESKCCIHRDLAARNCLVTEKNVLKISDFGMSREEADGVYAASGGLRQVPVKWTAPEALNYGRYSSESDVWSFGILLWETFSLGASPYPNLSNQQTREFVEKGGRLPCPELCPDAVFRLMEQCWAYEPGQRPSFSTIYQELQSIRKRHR
Source text: Supplement 41589_2023_1459_MOESM4_ESM.xlsx, sheet "CATDS matrix" | column: FES

GSPT1;GSPT2 = experiment: Kinobeads competition binding: GSPT1;GSPT2; design: species or system human; conditions: target GSPT1;GSPT2

Measured: CATDS

T2 sequence (P48730 whole entry): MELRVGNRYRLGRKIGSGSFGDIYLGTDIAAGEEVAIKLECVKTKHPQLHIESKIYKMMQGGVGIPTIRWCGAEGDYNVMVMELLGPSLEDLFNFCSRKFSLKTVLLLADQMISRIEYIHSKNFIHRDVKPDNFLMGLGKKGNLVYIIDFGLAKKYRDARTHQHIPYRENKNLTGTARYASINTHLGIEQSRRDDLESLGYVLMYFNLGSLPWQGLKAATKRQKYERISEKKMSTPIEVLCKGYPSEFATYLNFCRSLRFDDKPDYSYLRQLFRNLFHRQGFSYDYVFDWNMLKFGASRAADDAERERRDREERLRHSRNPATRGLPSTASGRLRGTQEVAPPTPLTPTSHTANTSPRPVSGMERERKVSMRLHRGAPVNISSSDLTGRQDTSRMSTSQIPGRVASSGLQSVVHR
T1 sequence (Q9NQU5 whole entry): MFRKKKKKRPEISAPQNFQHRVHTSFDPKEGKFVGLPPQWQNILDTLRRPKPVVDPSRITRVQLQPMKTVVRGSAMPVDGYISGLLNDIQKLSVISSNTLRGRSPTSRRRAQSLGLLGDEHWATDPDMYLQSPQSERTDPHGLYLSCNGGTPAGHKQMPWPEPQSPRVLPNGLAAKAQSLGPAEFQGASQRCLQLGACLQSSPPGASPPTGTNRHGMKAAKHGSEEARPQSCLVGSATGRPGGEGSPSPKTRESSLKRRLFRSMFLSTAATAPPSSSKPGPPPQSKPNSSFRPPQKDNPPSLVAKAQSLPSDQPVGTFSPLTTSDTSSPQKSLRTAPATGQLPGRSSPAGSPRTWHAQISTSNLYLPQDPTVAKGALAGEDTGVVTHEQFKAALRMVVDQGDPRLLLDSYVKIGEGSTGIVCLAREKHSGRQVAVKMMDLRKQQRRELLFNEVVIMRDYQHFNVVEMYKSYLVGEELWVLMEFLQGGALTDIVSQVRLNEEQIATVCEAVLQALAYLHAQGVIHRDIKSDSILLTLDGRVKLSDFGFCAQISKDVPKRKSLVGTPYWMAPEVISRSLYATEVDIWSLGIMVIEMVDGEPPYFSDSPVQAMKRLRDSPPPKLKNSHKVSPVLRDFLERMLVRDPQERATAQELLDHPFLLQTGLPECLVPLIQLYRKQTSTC

CCN1CCN(Cc2ccc(Nc3ncc(F)c(-c4cc(F)c5nc(C)n(C(C)C)c5c4)n3)nc2)CC1 [Abemaciclib]
0: PAK6 | CSNK1D | CAMKK2 | FES | GSPT1;GSPT2

N#CC1(c2ccc(NC(=O)c3cccnc3NCc3ccncc3)cc2)CCCC1 [Apatinib]
0: PAK6 | CSNK1D | CAMKK2 | FES | GSPT1;GSPT2

Nc1ncnc2[nH]c(-c3ccccc3)nc12 [AH5015_KCGS]
0: PAK6 | CSNK1D | CAMKK2 | FES | GSPT1;GSPT2

CCc1cc2c(cc1N1CCC(N3CCOCC3)CC1)C(C)(C)c1[nH]c3cc(C#N)ccc3c1C2=O [Alectinib]
0: PAK6 | CSNK1D | CAMKK2 | FES | GSPT1;GSPT2

Reference: paper PMC11062922 (Nature Chemical Biology, 2023)
